Key:
Type in all cases: cell-based
Aβ42 [1] = experiment: Screening for γ-secretase-modulating activity, Method 1: Aβ42 sandwich ELISA in supernatant of SKNBE2 cells carrying APP 695 wild type (Tables 12a, 12b)
Method: (§1) Screening was carried out using SKNBE2 cells carrying the APP 695—wild type, grown in Dulbecco's Modified Eagle's Medium/Nutrient mixture F-12 (DMEM/NUT-mix F-12) (HAM) provided by Gibco (cat no. 31330-38) containing 5% Serum/Fe supplemented with 1% non-essential amino acids. Cells were grown to near confluency.
(§2) The screening was performed using the assay as described in Citron et al (1997) Nature Medicine 3: 67. Briefly, cells were plated in a 96-well plate at about 10^5 cells/ml one day prior to addition of compounds. Compounds were added to the cells in Ultraculture (Lonza, BE12-725F) supplemented with 1% glutamine (Invitrogen, 25030-024) for 18 hours. The media were assayed by two sandwich ELISAs, for Aβ42 and Aβtotal. Toxicity of the compounds was assayed by WST-1 cell proliferation reagent (Roche, 1 644 807) according to the manufacturer's protocol.
To quantify the amount of Aβ42 in the cell supernatant, commercially available Enzyme-Linked-Immunosorbent-Assay (ELISA) kits were used (Innotest® β-Amyloid(1-42), Innogenetics N.V., Ghent, Belgium). The Aβ42 ELISA was performed essentially according to the manufacturer's protocol. Briefly, the standards (dilutions of synthetic Aβ1-42) were prepared in polypropylene Eppendorf with final concentrations of 8000 down to 3.9 pg/ml (1/2 dilution step). Samples, standards and blanks (100 μl) were added to the anti-Aβ42-coated plate supplied with the kit (the capture antibody selectively recognizes the C-terminal end of the antigen). The plate was allowed to incubate 3 h at 25° C. in order to allow formation of the antibody-amyloid complex. Following this incubation and subsequent wash steps a selective anti-Aβ-antibody conjugate (biotinylated 3D6) was added and incubated for a minimum of 1 hour in order to allow formation of the antibody-Amyloid-antibody-complex. After incubation and appropriate wash steps, a Streptavidine-Peroxidase-Conjugate was added, followed 30 minutes later by an addition of 3,3′,5,5′-tetramethylbenzidine (TMB)/peroxide mixture, resulting in the conversion of the substrate into a coloured product. This reaction was stopped by the addition of sulfuric acid (0.9 N) and the colour intensity was measured by means of photometry with an ELISA-reader with a 450 nm filter.
(§3) To obtain the values reported in Table 12a, the sigmoidal dose response curves were analysed by computerised curve-fitting, with percent of inhibition plotted against compound concentration. A 4-parameter equation (model 205) in XLfit was used to determine the IC50. The top and the bottom of the curve were fixed to 100 and 0, respectively, and the hill slope was fixed to 1. The IC50 represents the concentration of a compound that is required for inhibiting a biological effect by 50% (Here, it is the concentration where Aβ peptide level is reduced by 50%).
(§4) To obtain the values reported in Table 12b, the data are calculated as percentage of the maximum amount of amyloid Beta 42 measured in the absence of the test compound. The sigmoidal dose response curves were analyzed using non-linear regression analysis with percentage of the control plotted against the log concentration of the compound. A 4-parameter equation was used to determine the IC50. The values reported in Table 12b are averaged IC50 values.

Aβtotal [2] = experiment: Screening for γ-secretase-modulating activity, Method 1: Aβtotal sandwich ELISA in supernatant of SKNBE2 cells carrying APP 695 wild type (Tables 12a, 12b)
Method: as §1, §2
To quantify the amount of Aβtotal in the cell supernatant, samples and standards were added to a 6E10-coated plate. The plate was allowed to incubate overnight at 4° C. in order to allow formation of the antibody-amyloid complex. Following this incubation and subsequent wash steps a selective anti-Aβ-antibody conjugate (biotinylated 4G8) was added and incubated for a minimum of 1 hour in order to allow formation of the antibody-Amyloid-antibody-complex. After incubation and appropriate wash steps, a Streptavidine-Peroxidase-Conjugate was added, followed 30 minutes later by an addition of Quanta Blu fluorogenic peroxidase substrate according to the manufacturer's instructions (Pierce Corp., Rockford, Ill.).
as §3, §4

Aβtotal [3] = experiment: Screening for γ-secretase-modulating activity, Method 2: Aβtotal Alphalisa in supernatant of SKNBE2 cells carrying APP 695 wild type (Table 12c); settings: Method 2, Table 12c, incubated overnight
Method: as §1, with “Invitrogen” for “Gibco”, “10371-029)” for “31330-38)”, “acids, 1-glutamine 2 mM, Hepes 15 mM, penicillin 50 U/ml (units/ml) en streptomycin 50 μg/ml.” for “acids.”
(§5) The screening was performed using a modification of the assay as described in Citron et al (1997) Nature Medicine 3: 67. Briefly, cells were plated in a 384-well plate at 10^4 cells/well in Ultraculture (Lonza, BE12-725F) supplemented with 1% glutamine (Invitrogen, 25030-024), 1% non-essential amino acid (NEAA), penicillin 50 U/ml en streptomycin 50 μg/ml in the presence of test compound at different test concentrations. The cell/compound mixture was incubated overnight at 37° C., 5% CO2, The next day the media were assayed by two sandwich immuno-assays, for Aβ42 and Aβtotal.
(§6) Aβtotal and Aβ42 concentrations were quantified in the cell supernatant using the Aphalisa technology (Perkin Elmer). Alphalisa is a sandwich assay using biotinylated antibody attached to streptavidin coated donorbeads and antibody conjugated to acceptor beads. In the presence of antigen, the beads come into close proximity. The excitation of the donor beads provokes the release of singlet oxygen molecules that trigger a cascade of energy transfer in the acceptor beads, resulting in light emission. To quantify the amount of Aβ42 in the cell supernatant, monoclonal antibody specific to the C-terminus of Aβ42 (JRF/cAβ42/26) was coupled to the receptor beads and biotinylated antibody specific to the N-terminus of Aβ (JRF/AβN/25) was used to react with the donor beads. To quantify the amount of Aβtotal in the cell supernatant, monoclonal antibody specific to the N-terminus of Aβ (JRF/AβN/25) was coupled to the receptor beads and biotinylated antibody specific to the mid region of Aβ (biotinylated 4G8) was used to react with the donor beads.
as §4, with “12c,” for “12b,”, “IC50.” for “IC50. The values reported in Table 12b are averaged IC50 values.”

Aβ42 [4] = experiment: Screening for γ-secretase-modulating activity, Method 2: Aβ42 Alphalisa in supernatant of SKNBE2 cells carrying APP 695 wild type (Table 12c); settings: Method 2, Table 12c, incubated overnight
Method: as §1, with “Invitrogen” for “Gibco”, “10371-029)” for “31330-38)”, “acids, 1-glutamine 2 mM, Hepes 15 mM, penicillin 50 U/ml (units/ml) en streptomycin 50 μg/ml.” for “acids.”
as §5, §6
as §4, with “12c,” for “12b,”, “IC50.” for “IC50. The values reported in Table 12b are averaged IC50 values.”

[5] = Homo sapiens, Method 1, Table 12a, SKNBE2 cells carrying APP 695 wild type, compounds 18 hours, ELISA, curve top and bottom fixed to 100 and 0, hill slope 1
[6] = Homo sapiens, Table 12b, Method 1, SKNBE2 cells carrying APP 695 wild type, cell supernatant ELISA, averaged IC50 values, percentage of control vs log concentration
[7] = Homo sapiens, Table 12b, Method 1, SKNBE2 cells carrying APP 695 wild type, cell supernatant ELISA, averaged IC50 values
[8] = Method 1, Table 12a, SKNBE2 cells carrying APP 695 wild type, compounds 18 hours, ELISA, curve top and bottom fixed to 100 and 0, hill slope 1
[9] = Table 12b, Method 1, SKNBE2 cells carrying APP 695 wild type, cell supernatant ELISA, averaged IC50 values, percentage of control vs log concentration
[10] = Table 12b, Method 1, SKNBE2 cells carrying APP 695 wild type, cell supernatant ELISA, averaged IC50 values

SMILES	IC50 (Aβ42 [1]; [5])	IC50 (Aβ42 [1]; [6])	IC50 (Aβtotal [2]; [5])	IC50 (Aβtotal [2]; [7])	IC50 (Aβ42 [1]; [9])	IC50 (Aβtotal [2]; [10])	other results
COc1cc(Nc2cccn3c(-c4cccc(-c5ccccc5)c4)cnc23)ccc1-n1cnc(C)c1 [Compound 61]	423 nM	437 nM	> 10000 nM	> 10000 nM	–	–	–
COc1cc(Nc2cccn3c(C(=O)c4ccc(F)cc4)cnc23)ccc1-n1cnc(C)c1 [Compound 62]	477 nM	417 nM	> 10000 nM	> 3020 nM	–	–	–
COc1cccc(-c2nc3c(Nc4ccc(-n5cnc(C)c5)cc4)cccn3c2C)c1 [Compound 64]	13 nM	17 nM	> 3000 nM	> 3020 nM	–	–	–
COc1cccc(-c2nc3c(Nc4ccc(-n5ccnc5C)cc4)cccn3c2C)c1 [Compound 65]	782 nM	661 nM	27200 nM	17800 nM	–	–	–
COc1cccc(-c2nc3c(Nc4ccc(-n5cnc(C)n5)c(OC)c4)cccn3c2C)c1 [Compound 67]	51 nM	40 nM	> 3000 nM	> 3020 nM	–	–	–
COc1cccc(-c2nc3c(Nc4ccc(-n5cnc(C)c5)cn4)cccn3c2C)c1 [Compound 68]	–	–	–	–	18 nM	> 3020 nM	IC50 (Aβ42 [1]; [8]): 18 nM; IC50 (Aβtotal [2]; [8]): > 1000 nM
CCCCc1cn2cccc(Nc3ccc(-n4cnc(C)c4)c(OC)c3)c2n1 [Compound 69]	–	–	–	–	–	–	IC50 (Aβtotal [3]): > 10000 nM; IC50 (Aβ42 [4]): 46 nM
Cc1ccc(C(F)(F)F)cc1-c1cn2cccc(Nc3ccc(-n4ncnc4C)cc3)c2n1 [Compound 75]	–	126 nM	–	> 3020 nM	–	–	–
CCCCc1cn2cccc(Nc3ccc(-n4cnc(C)n4)cc3)c2n1 [Compound 76]	–	–	–	–	1950 nM	> 10000 nM	–
COc1cc(Nc2cccn3cc(C)nc23)ccc1-n1cnc(C)n1 [Compound 77]	2690 nM	4360 nM	> 10000 nM	> 10000 nM	–	–	–
Cc1ncn(-c2ccc(Nc3cccn4cc(-c5cc(C(F)(F)F)ccc5C)nc34)nc2)n1 [Compound 81]	–	–	–	–	380 nM	> 10000 nM	–
Cc1ncn(-c2ccc(Nc3cccn4cc(-c5ccccc5C)nc34)nc2)n1 [Compound 82]	–	–	–	–	562 nM	> 3020 nM	–
Cc1ncn(-c2ccc(Nc3cccn4cc(-c5cc(C(F)(F)F)ccc5C)nc34)cn2)n1 [Compound 84]	–	–	–	–	115 nM	> 3020 nM	–
COc1cc(Nc2cccn3cc(-c4ccccc4F)nc23)ccc1-n1cnc(C)c1 [Compound 88]	184 nM	174 nM	> 3000 nM	> 10000 nM	–	–	–
COc1cc(Nc2cccn3cc(-c4ccc(F)cc4C)nc23)ccc1-n1cnc(C)n1 [Compound 89]	–	85 nM	–	> 3020 nM	–	–	–
Cc1ncn(-c2ccc(Nc3cccn4cc(-c5ccc(F)cc5C)nc34)cc2)n1 [Compound 90]	–	398 nM	–	> 3020 nM	–	–	–

Source: patent publication US8546440B2, “Substituted bicyclic imidazole derivatives as gamma secretase modulators” (Janssen Pharmaceuticals, Inc., priority 2008, dated 2013)
